Experimental data from patent US7435837B2, “Dihydrobenzofuranyl alkanamine derivatives and methods for using same” (Wyeth, priority 2003, dated 2008).
Where two headings read alike, the source gives them in different places.

Experiments:
[1] = biological target: T1, human 5-hydroxytryptamine-2C (h5-HT2C) receptor (Homo sapiens, UniProt P28335); assay: [125I]DOI binding to membranes of CHO cells expressing the human 5-HT2C receptor; conditions: [125I]DOI radioligand, CHO cell membranes, room temperature 60 min; read-out: 5-HT2C Affinity Ki
T1 construct: expressed in transfected cells; host or cells: CHO (Chinese Hamster Ovary) cells; membranes
T1 sequence (P28335 33-458): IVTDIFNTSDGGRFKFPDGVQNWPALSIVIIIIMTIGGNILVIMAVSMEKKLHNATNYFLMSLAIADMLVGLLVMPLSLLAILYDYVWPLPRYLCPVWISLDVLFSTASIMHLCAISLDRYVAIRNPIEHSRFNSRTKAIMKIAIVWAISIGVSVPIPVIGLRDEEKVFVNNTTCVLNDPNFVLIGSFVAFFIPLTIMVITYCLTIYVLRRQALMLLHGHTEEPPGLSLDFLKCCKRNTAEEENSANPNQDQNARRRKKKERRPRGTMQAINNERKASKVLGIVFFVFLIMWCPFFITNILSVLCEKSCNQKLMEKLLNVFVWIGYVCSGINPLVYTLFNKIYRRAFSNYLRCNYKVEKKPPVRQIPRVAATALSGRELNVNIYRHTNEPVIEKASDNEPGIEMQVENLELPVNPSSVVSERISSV

human 5-HT2C receptor = biological target: T2, human 5-HT2C receptor (Homo sapiens, UniProt P28335); assay: 5-HT2C receptor-stimulated calcium mobilization (FLIPR) in CHO cells; assay type: cell-based; conditions: for EC50: calcium mobilization, CHO cells stably expressing human 5-HT2C, read-out: 5-HT2C Function EC50; for Emax: CHO;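 on all read-outs here: Fluo-3-AM fluorescence read on FLIPR every 1 s, agonist added after 10 baseline reads, response taken as peak minus lowest raw fluorescence count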
T2 sequence (P28335 33-458): T1 sequence (P28335 33-458)

[2] = percentage of the response observed with a maximally effective concentration of 5-HT
[3] = percentage of the response observed with a maximally effective concentration of 5-HT, read-out: 5-HT2C Function Emax (%)

SMILES | Ki [1] [nM] | EC50 (human 5-HT2C receptor) [nM] | other results
COc1cccc2c1OC(CN)C2 (racemic) [Example 7, (±)-1-(7-methoxy-2,3-dihydro-1-benzofuran-2-yl)methanamine] | 160 |  | 
NCC1Cc2cc(Cl)cc(C3CCCCC3)c2O1 (racemic) [Example 11, (±)-(5-chloro-7-cyclohexyl-2,3-dihydro-1-benzofuran-2-yl)methylamine] | 106 |  | 
CNCC1Cc2cc(Cl)cc(C3CCCCC3)c2O1 (racemic) [Example 12, (±)-N-[(5-chloro-7-cyclohexyl-2,3-dihydro-1-benzofuran-2-yl)methyl]-N-methylamine] | 127 |  | 
COc1cc2c(c(C(C)(C)C)c1)OC(CN)C2 (racemic) [Example 13, (±)-(7-tert-butyl-5-methoxy-2,3-dihydro-1-benzofuran-2-yl)methylamine] | 133 |  | 
NCC1Cc2c(C(F)(F)F)ccc(Cl)c2O1 (racemic) [Example 14, (±)-[7-chloro-4-(trifluoromethyl)-2,3-dihydro-1-benzofuran-2-yl]methanamine] | 78 |  | 
NCC1Cc2cccc(Cc3ccccc3)c2O1 (racemic) [Example 15, (±)-1-(7-benzyl-2,3-dihydro-1-benzofuran-2-yl)methanamine] | 222 |  | 
CC(C)(C)c1cccc2c1OC(CN)C2 (racemic) [Example 24, (±)-1-(7-tert-butyl-2,3-dihydro-1-benzofuran-2-yl)methanamine] | 36 |  | 
COc1ccc2c(c1)OC(CN)C2 (racemic) [Example 30, (±)-1-(6-methoxy-2,3-dihydro-1-benzofuran-2-yl)methanamine] | 191 |  | 
NCC1Cc2ccc(-c3ccccc3)cc2O1 (racemic) [Example 31, (±)-(6-phenyl-2,3-dihydro-1-benzofuran-2-yl)methanamine] | 1370 |  | 
NCC1Cc2cccc(-c3cc(C(F)(F)F)cc(C(F)(F)F)c3)c2O1 (racemic) [Example 32, (±)-1-{7-[3,5-bis(trifluoromethyl)phenyl]-2,3-dihydro-1-benzofuran-2-yl}methanamine] | 419 |  | 
NCC1Cc2cccc(-c3cccc4ccccc34)c2O1 (racemic) [Example 33, (±)-1-[7-(1-naphthyl)-2,3-dihydro-1-benzofuran-2-yl]methanamine] | 32 |  | 
NCC1Cc2cccc(-c3ccc(F)c(Cl)c3)c2O1 (racemic) [Example 34, (±)-1-[7-(3-chloro-4-fluorophenyl)-2,3-dihydro-1-benzofuran-2-yl]methanamine] | 37 |  | 
NCC1Cc2cccc(-c3cc(Cl)cc(Cl)c3)c2O1 (racemic) [Example 35, (±)-1-[7-(3,5-dichlorophenyl)-2,3-dihydro-1-benzofuran-2-yl]methanamine] | 141 |  | 
NCC1Cc2cccc(-c3ccccc3)c2O1 (racemic) [Example 36, (±)-1-(7-phenyl-2,3-dihydro-1-benzofuran-2-yl)methanamine] | 15 |  | 
NCC1Cc2cccc(-c3ccc4ccccc4c3)c2O1 (racemic) [Example 39, (±)-1-[7-(2-naphthyl)-2,3-dihydro-1-benzofuran-2-yl]methanamine] | 43 |  | 
NCC1Cc2cccc(-c3cc4ccccc4o3)c2O1 (racemic) [Example 40, (±)-1-(2′,3′-dihydro-2,7′-bi-1-benzofuran-2′-yl)methanamine] | 122 |  | 
Cc1cccc(-c2cccc3c2OC(CN)C3)c1 (racemic) [Example 41, (±)-1-[7-(3-methylphenyl)-2,3-dihydro-1-benzofuran-2-yl]methanamine] | 25 |  | 
NCC1Cc2cccc(-c3cccc(C(F)(F)F)c3)c2O1 (racemic) [Example 69, (±)-1-{7-[3-(trifluoromethyl)phenyl]-2,3-dihydro-1-benzofuran-2-yl}methanamine] | 96 |  | 
NCC1Cc2cc(Cl)cc(-c3ccccc3)c2O1 (racemic) [Example 84, (±)-1-(5-chloro-7-phenyl-2,3-dihydro-1-benzofuran-2-yl)methanamine] | 11 |  | 
Cc1cccc(-c2cc(Cl)cc3c2OC(CN)C3)c1 (racemic) [Example 88, (±)-1-[5-chloro-7-(3-methylphenyl)-2,3-dihydro-1-benzofuran-2-yl]methanamine] | 48 |  | 
NCC1Cc2cc(Cl)cc(-c3cccc(Cl)c3)c2O1 (racemic) [Example 89, (±)-1-[5-chloro-7-(3-chlorophenyl)-2,3-dihydro-1-benzofuran-2-yl]methanamine] | 40 |  | 
CNCC1Cc2cc(F)cc(-c3c(Cl)cccc3Cl)c2O1 (single isomer, unassigned; (+)) [Example 543, (+){[7-(2,6-dichlorophenyl)-5-fluoro-2,3-dihydro-1-benzofuran-2-yl]methyl}methylamine] |  | 0.2 | 5-HT2C Function Emax (%) (human 5-HT2C receptor; [2]): 100%
CNCC1Cc2cc(F)cc(-c3ccc(Cl)cc3Cl)c2O1 (single isomer, unassigned; (-)) [Example 446] |  | 460 | Emax (human 5-HT2C receptor; read-out: 5-HT2C Function Emax (%), percentage of the response observed with a maximally effective concentration of 5-HT): 70%
CNCC1Cc2cc(F)cc(-c3c(Cl)cccc3Cl)c2O1 (single isomer, unassigned; (-)) [Example 544, (−){[7-(2,6-dichlorophenyl)-5-fluoro-2,3-dihydro-1-benzofuran-2-yl]methyl}methylamine] |  | 73 | 5-HT2C Function Emax (%) (human 5-HT2C receptor; [2]): 70%
NC[C@H]1Cc2cc(F)cc(-c3c(Cl)cccc3Cl)c2O1 [Example 550, (−)-{[7-(2,6-dichlorophenyl)-5-fluoro-2,3-dihydro-1-benzofuran-2-yl]methyl}amine] |  |  | Emax (human 5-HT2C receptor; [3]): 100%

Further lines, with some results ahead:

Ki [1] [nM] | EC50 (human 5-HT2C receptor) [nM] | SMILES | other results
8 |  | NCC1Cc2cc(Cl)cc(-c3ccsc3)c2O1 (racemic) [Example 90, (±)-(5-chloro-7-thien-3-yl-2,3-dihydro-1-benzofuran-2-yl)methylamine] | 
 | 265 | CNCC1Cc2cc(F)cc(-c3c(C)cccc3C)c2O1 (single isomer, unassigned; (+)) [Example 558, (+)-{[7-(2,6-dimethylphenyl)-5-fluoro-2,3-dihydro-1-benzofuran-2-yl]methyl}methylamine] | Emax (human 5-HT2C receptor; [3]): 70%
 | 287 | CNCC1Cc2cc(Cl)cc(-c3c(C)cccc3C)c2O1 (single isomer, unassigned; (+)) [Example 565, (+)-{[5-chloro-7-(2,6-dimethylphenyl)-2,3-dihydro-1-benzofuran-2-yl]methyl}methylamine] | 5-HT2C Function Emax (%) (human 5-HT2C receptor; [2]): 70%
 | 3 | CNCC1Cc2cc(C)cc(-c3cccc(OC)c3OC)c2O1 (single isomer, unassigned; (+)) [Example 566, (+)-{[7-(2,3-dimethoxyphenyl)-5-methyl-2,3-dihydro-1-benzofuran-2-yl]methyl}methylamine] | Emax (human 5-HT2C receptor; [3]): 70%
 | 6 | CNCC1Cc2cc(F)cc(-c3cccc(OC)c3OC)c2O1 (single isomer, unassigned; (+)) [Example 569, (+)-{[7-(2,3-dimethoxyphenyl)-5-fluoro-2,3-dihydro-1-benzofuran-2-yl]methyl}methylamine] | 5-HT2C Function Emax (%) (human 5-HT2C receptor; [2]): 60%
 | 9 | COc1cccc(-c2cc(F)cc3c2OC(CN)C3)c1OC (single isomer, unassigned; (-)) [Example 213, (−)-{[7-(2,3-dimethoxyphenyl)-5-fluoro-2,3-dihydro-1-benzofuran-2-yl]methyl}amine] | 5-HT2C Function Emax (%) (human 5-HT2C receptor; [2]): 100%
 | 8 | COc1cccc(-c2cc(C)cc3c2OC(CN)C3)c1OC (single isomer, unassigned; (-)) [Example 295, (−)-{[7-(2,3-dimethoxyphenyl)-5-methyl-2,3-dihydro-1-benzofuran-2-yl]methyl}amine] | Emax (human 5-HT2C receptor; [3]): 90%
 | 283 | COc1cc2c(c(-c3cc(Cl)ccc3Cl)c1)OC(CN)C2 (single isomer, unassigned; (-)) [Example 369, (−)-{[7-(2,5-dichlorophenyl)-5-methoxy-2,3-dihydro-1-benzofuran-2-yl]methyl}amine] | 5-HT2C Function Emax (%) (human 5-HT2C receptor; [2]): 90%
 | 135 | CNCC1Cc2cc(Cl)cc(-c3cc(Cl)ccc3Cl)c2O1 (single isomer, unassigned; (-)) [Example 563, (−)-{[5-chloro-7-(2,5-dichlorophenyl)-2,3-dihydro-1-benzofuran-2-yl]methyl}methylamine] | 5-HT2C Function Emax (%) (human 5-HT2C receptor; [2]): 70%
 | 43 | CNCC1Cc2cc(Cl)cc(-c3c(C)cccc3C)c2O1 (single isomer, unassigned; (-)) [Example 564, (−)-{[5-chloro-7-(2,6-dimethylphenyl)-2,3-dihydro-1-benzofuran-2-yl]methyl}methylamine] | Emax (human 5-HT2C receptor; [3]): 90%
 | 9 | CNCC1Cc2cc(C)cc(-c3cccc(OC)c3OC)c2O1 (single isomer, unassigned; (-)) [Example 567, (−)-{[7-(2,3-dimethoxyphenyl)-5-methyl-2,3-dihydro-1-benzofuran-2-yl]methyl}methylamine] | 5-HT2C Function Emax (%) (human 5-HT2C receptor; [2]): 60%
 | 4 | CNCC1Cc2cc(F)cc(-c3cccc(OC)c3OC)c2O1 (single isomer, unassigned; (-)) [Example 568, (−)-{[7-(2,3-dimethoxyphenyl)-5-fluoro-2,3-dihydro-1-benzofuran-2-yl]methyl}methylamine] | Emax (human 5-HT2C receptor; [3]): 80%
